Numbered stars: 1 amine (or outer) side, 2 acyl side, 3 side chain; on linkers, the order of the positions; unused ones are H or OH. Ends that are not written are not given here. Suc = O=C(CCC(=O)[*:2])[*:1]

Test [1] deals with progressive or recurrent carcinoma. Kind of test: Open label, single arm, dose escalation study of IRL-1620 in combination with docetaxel: anti-tumor activity. Type of test: in vivo, human. The text has this:
Patient characteristics were as follows.
CT or MRI scans are used to assess the patient's tumor size. A series of dynamic contrast enhancer pattern MRI scans are used to measure any increases in blood flow induced by IRL 1620.

Test [2] deals with blood flow in tumor and non-tumor regions. The test can be described thus: H2^15O PET Blood Flow scans after IRL-1620. Type of test: in vivo, human. The following applies: patients, PET blood flow scans on Day 8.
The mark [3] stands for this setting: 30 patients, IRL-1620 with docetaxel.
Where [4] appears, read: previously docetaxel treated prostate cancer patient.

“N-Succunyl-[Glu^9, Ala^11,15] Endothelin-1 (8-21) (Suc-DEEAVYFAHLDIIW) [IRL-1620, ETB receptor agonist]”: the “time on study of patients with prolonged clinical benefit” value in test [1] (4 cases, IRL-1620 with docetaxel) is 20-74 weeks. Moreover, in test [1] (setting [3]), the “cases of prolonged clinical benefit” value is on record as 4 cases, the “cases of stable disease” value is 5 cases, the “prolonged clinical benefit rate” value is given as 13% and the “stable disease (SD) rate” value came out at 16%. Moreover, the anti-tumor activity entry in test [1] (docetaxel-pretreated patients) is given as “Anti-tumor activity was seen”. Further, the “time to complete regression of lung metastasis” value in test [1] (one patient with cholangiocarcinoma) was at most 3 months. In addition, in test [1] (one patient with cholangiocarcinoma, complete regression of lung metastasis), the “time on study before progressing” value is given as 41 weeks. Moreover, the “discontinuation of the study due to disease progression” value in test [1] (patients, IRL-1620 with docetaxel) is recorded as 84%. In test [1] (setting [4]), the PSA response entry was “PSA response” and the “change in metastatic prostate cancer” value is reported as “measurable decrease”. For the same substance, the “changes in blood flow” value in test [2] was “did not result in any measurable changes”.

(Values after US10022421B2, “Treatment of primary and metastatic carcinoma” (Spectrum Pharmaceuticals Inc., priority 2012, dated 2018).)
